molecular target: T1, recombinant human ULK1 protein (1-649) (Homo sapiens, UniProt O75385); test: ULK1 inhibition assay (ADP Glo); assay type: biochemical; details: Table 1; 25 uM ATP, MBP substrate, one hour
T1 construct: recombinant human ULK1 protein (1-649, SignalChem #U01-11G); purchased SignalChem U01-11G
T1 sequence (O75385 1-649): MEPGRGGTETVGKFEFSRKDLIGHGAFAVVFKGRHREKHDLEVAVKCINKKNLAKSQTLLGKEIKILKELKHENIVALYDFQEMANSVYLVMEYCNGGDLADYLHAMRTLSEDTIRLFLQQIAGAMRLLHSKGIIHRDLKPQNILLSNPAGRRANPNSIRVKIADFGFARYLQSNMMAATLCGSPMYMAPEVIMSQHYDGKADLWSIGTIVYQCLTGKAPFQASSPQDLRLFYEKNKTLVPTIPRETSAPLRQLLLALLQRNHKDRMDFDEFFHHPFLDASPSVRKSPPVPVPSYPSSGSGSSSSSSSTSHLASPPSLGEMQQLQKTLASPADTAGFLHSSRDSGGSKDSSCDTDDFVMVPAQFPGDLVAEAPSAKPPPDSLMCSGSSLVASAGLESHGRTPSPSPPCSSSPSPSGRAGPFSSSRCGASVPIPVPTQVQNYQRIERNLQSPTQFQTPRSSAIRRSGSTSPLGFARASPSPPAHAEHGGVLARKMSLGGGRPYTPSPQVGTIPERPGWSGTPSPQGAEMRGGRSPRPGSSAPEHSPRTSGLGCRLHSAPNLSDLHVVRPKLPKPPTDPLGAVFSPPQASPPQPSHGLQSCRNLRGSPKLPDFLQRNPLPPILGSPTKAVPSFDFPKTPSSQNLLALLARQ
Method in brief: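 Recombinant ULK1 (2 ug/mL) phosphorylated myelin basic protein (80 ug/mL) at 25 uM ATP; ADP formed was detected by ADP-Glo after 1 h. Compounds ran in triplicate, 16-dose 3-fold serial dilution from 30 uM, to give IC50.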

| Compound | IC50 |
| --- | --- |
| CNC(=O)c1ccccc1Nc1nc(Nc2ccc3c(c2)CN(C(=O)CCC(=O)O)CC3)ncc1Br [Compound A156, 4-{7-[5-Bromo-4-(2-methylcarbamoyl-phenylamino)-pyrimidin-2-ylamino]-3,4-dihydro-1H-isoquinolin-2-yl}-4-oxo-butyric acid] | > 10 nM |
| CNC(=O)c1ccccc1Nc1nc(Nc2ccc3c(c2)CN(CC(C)O)CC3)ncc1Br (stereo not drawn) [Compound A157, 2-{5-Bromo-2-[2-(2-hydroxy-propyl)-1,2,3,4-tetrahydro-isoquinolin-7-ylamino]-pyrimidin-4-ylamino}-N-methyl-benzamide] | > 10 nM |
| CNC(=O)c1ccccc1Nc1nc(Nc2ccc3c(c2)CN(Cc2ccc(OC)cc2)CC3)ncc1Br [Compound A158, 2-{5-Bromo-2-[2-(4-methoxy-benzyl)-1,2,3,4-tetrahydro-isoquinolin-7-ylamino]-pyrimidin-4-ylamino}-N-methyl-benzamide] | > 10 nM |
| CNC(=O)c1ccccc1Nc1nc(Nc2ccc3c(c2)CN(Cc2cccnc2)CC3)ncc1Br [Compound A159, 2-[5-Bromo-2-(2-pyridin-3-ylmethyl-1,2,3,4-tetrahydro-isoquinolin-7-ylamino)-pyrimidin-4-ylamino]-N-methyl-benzamide] | > 10 nM |
| CNC(=O)c1ccccc1Nc1nc(Nc2ccc3c(c2)CN(Cc2ccncn2)CC3)ncc1Br [Compound A160, 2-[5-Bromo-2-(2-pyrimidin-4-ylmethyl-1,2,3,4-tetrahydro-isoquinolin-7-ylamino)-pyrimidin-4-ylamino]-N-methyl-benzamide] | > 10 nM |
| CNC(=O)c1ccccc1Nc1nc(Nc2ccc3c(c2)CN(S(N)(=O)=O)CC3)ncc1Br [Compound A161, 2-[5-Bromo-2-(2-sulfamoyl-1,2,3,4-tetrahydro-isoquinolin-7-ylamino)-pyrimidin-4-ylamino]-N-methyl-benzamide] | > 10 nM |
| CNC(=O)c1ccccc1Nc1nc(Nc2ccc3c(c2)CN(Cc2ccncc2)CC3)ncc1Br [Compound A162, 2-[5-Bromo-2-(2-pyridin-4-ylmethyl-1,2,3,4-tetrahydro-isoquinolin-7-ylamino)-pyrimidin-4-ylamino]-N-methyl-benzamide] | > 10 nM |
| CNC(=O)c1ccccc1Nc1nc(Nc2ccc3c(c2)CN(Cc2ccccn2)CC3)ncc1Br [Compound A163, 2-[5-Bromo-2-(2-pyridin-2-ylmethyl-1,2,3,4-tetrahydro-isoquinolin-7-ylamino)-pyrimidin-4-ylamino]-N-methyl-benzamide] | > 10 nM |
| CNC(=O)c1ccccc1Nc1nc(Nc2ccc3c(c2)CN(CCC(=O)O)CC3)ncc1Br [Compound A164, 3-{7-[5-Bromo-4-(2-methylcarbamoyl-phenylamino)-pyrimidin-2-ylamino]-3,4-dihydro-1H-isoquinolin-2-yl}-propionic acid] | > 10 nM |
| CNC(=O)c1ccccc1Nc1nc(Nc2ccc3c(c2)CN(CCC(N)=O)CC3)ncc1Br [Compound A166, 2-{5-Bromo-2-[2-(2-carbamoyl-ethyl)-1,2,3,4-tetrahydro-isoquinolin-7-ylamino]-pyrimidin-4-ylamino}-N-methyl-benzamide] | > 10 nM |
| CNC(=O)c1ccccc1Nc1nc(Nc2ccc3c(c2)CN(C)CC3)ncc1Br [Compound A167, 2-[5-Bromo-2-(2-methyl-1,2,3,4-tetrahydro-isoquinolin-7-ylamino)-pyrimidin-4-ylamino]-N-methyl-benzamide] | > 10 nM |
| CNC(=O)c1ccccc1Nc1nc(Nc2ccc3c(c2)C[N+](C)(C)CC3)ncc1Br [Compound A168, 7-[5-Bromo-4-(2-methylcarbamoyl-phenylamino)-pyrimidin-2-ylamino]-2,2-dimethyl-1,2,3,4-tetrahydro-isoquinolinium; iodide] | > 10 nM |

same assay, conditions: Table 2

| Compound | IC50 |
| --- | --- |
| CNC(=O)c1ccccc1Oc1nc(Nc2cc(F)c(F)c(F)c2)ncc1Br [Compound B1] | > 1000 nM |
| COC(=O)c1ccccc1Oc1nc(Nc2cc(OC)c(OC)c(OC)c2)ncc1Br [Compound B2] | < 100 nM |
| COc1cc(Nc2ncc(Br)c(Oc3ccccc3C(=O)N(C)CCO)n2)cc(OC)c1OC [Compound B3] | 100 to 1000 nM |
| COc1cc(Nc2ncc(Br)c(Oc3ccccc3C(=O)O)n2)cc(OC)c1OC [Compound B4] | 100 to 1000 nM |
| COC(=O)CN(C)C(=O)c1ccccc1Oc1nc(Nc2cc(OC)c(OC)c(OC)c2)ncc1Br [Compound B5] | 100 to 1000 nM |
| COc1cc(Nc2ncc(Br)c(Oc3ccccc3C(=O)NCC(F)(F)F)n2)cc(OC)c1OC [Compound B6] | 100 to 1000 nM |
| COc1cc(Nc2ncc(Br)c(Oc3ccccc3C(=O)NCCN(C)C)n2)cc(OC)c1OC [Compound B7] | > 1000 nM |
| COc1cc(Nc2ncc(Br)c(Oc3ccccc3C(=O)NCCS(C)(=O)=O)n2)cc(OC)c1OC [Compound B8] | > 1000 nM |
| COc1cc(Nc2ncc(Br)c(Oc3ccccc3C(=O)N3CCOCC3)n2)cc(OC)c1OC [Compound B9] | > 1000 nM |
| COc1cc(Nc2ncc(Br)c(Oc3ccccc3C(=O)NCCC#N)n2)cc(OC)c1OC [Compound B10] | > 1000 nM |
| COC(=O)c1ccccc1Oc1nc(Nc2ccc(N3CCN(C)CC3)cc2)ncc1Br [Compound B11] | < 100 nM |
| COC(=O)c1ccccc1Oc1nc(Nc2ccc(N3CCOCC3)cc2)ncc1Br [Compound B12] | > 1000 nM |
| COC(=O)c1ccccc1Oc1nc(Nc2ccc(OC(F)(F)F)cc2)ncc1Br [Compound B13] | > 1000 nM |
| COC(=O)c1ccccc1Oc1nc(Nc2ccc3c(c2)OCCO3)ncc1Br [Compound B14] | > 1000 nM |
| COc1cc(Nc2ncc(Br)c(Oc3ccccc3C(=O)N(C)O)n2)cc(OC)c1OC [Compound B15] | < 100 nM |
| COC(=O)c1ccccc1Oc1nc(Nc2cc(C)c(C)c(C)c2)ncc1Br [Compound B16] | > 1000 nM |
| COC(=O)c1ccccc1Oc1nc(Nc2ccc(OC)c(OC)c2)ncc1Br [Compound B17] | > 1000 nM |
| COC(=O)c1ccccc1Oc1nc(Nc2cnc3[nH]ccc3c2)ncc1Br [Compound B18] | > 1000 nM |
| COC(=O)c1ccccc1Oc1nc(Nc2ccc(OC)cc2)ncc1Br [Compound B19] | > 1000 nM |
| COC(=O)c1ccccc1Oc1nc(Nc2ccc3c(c2)OCO3)ncc1Br [Compound B20] | > 1000 nM |
| COC(=O)c1ccccc1Oc1nc(Nc2cccc(C(N)=O)c2)ncc1Br [Compound B21] | > 1000 nM |
| COC(=O)c1ccccc1Oc1nc(Nc2ccc3[nH]cnc3c2)ncc1Br [Compound B22] | > 1000 nM |
| COC(=O)c1ccccc1Oc1nc(Nc2cccc(OC)c2)ncc1Br [Compound B23] | > 1000 nM |

| Compound | IC50 |
| --- | --- |
| COC(=O)c1ccccc1Oc1nc(Nc2ccc(N(C)C)cc2)ncc1Br [Compound B24] | 100 to 1000 nM |
| COC(=O)c1ccccc1Oc1nc(Nc2ccc(OC(F)F)cc2)ncc1Br [Compound B25] | > 1000 nM |
| COC(=O)c1ccccc1Oc1nc(Nc2ccc3[nH]ncc3c2)ncc1Br [Compound B26] | 100 to 1000 nM |
| COC(=O)c1ccccc1Oc1nc(Nc2ccc(N3CCCC3)cc2)ncc1Br [Compound B27] | > 1000 nM |
| COC(=O)c1ccccc1Oc1nc(Nc2cccc(C(F)(F)F)c2)ncc1Br [Compound B28] | > 1000 nM |
| COC(=O)c1ccccc1Oc1nc(Nc2cccc(OC(F)F)c2)ncc1Br [Compound B29] | > 1000 nM |
| COC(=O)c1ccccc1Oc1nc(Nc2ccc3c(c2)CCO3)ncc1Br [Compound B30] | > 1000 nM |
| COC(=O)c1ccccc1Oc1nc(Nc2ccc3[nH]ccc3c2)ncc1Br [Compound B31] | > 1000 nM |
| COC(=O)c1ccccc1Oc1nc(Nc2ccc(SC)cc2)ncc1Br [Compound B32] | > 1000 nM |
| COC(=O)c1ccccc1Oc1nc(Nc2ccc3c(c2)COC3)ncc1Br [Compound B33] | > 1000 nM |
| COC(=O)c1ccccc1Oc1nc(Nc2cc(F)c(OC)c(F)c2)ncc1Br [Compound B34] | > 1000 nM |
| COC(=O)c1ccccc1Oc1nc(Nc2ccc3occc3c2)ncc1Br [Compound B35] | > 1000 nM |
| COC(=O)c1ccccc1Oc1nc(Nc2ccc(O)cc2)ncc1Br [Compound B36] | > 1000 nM |
| COC(=O)c1ccccc1Oc1nc(Nc2ccc(N)cc2)ncc1Br [Compound B37] | 100 to 1000 nM |
| COC(=O)c1ccccc1Oc1nc(Nc2ccc(CO)cc2)ncc1Br [Compound B38] | > 1000 nM |
| COC(=O)c1ccccc1Oc1nc(Nc2ccc(OC)nc2)ncc1Br [Compound B39] | > 1000 nM |
| COC(=O)c1ccccc1Oc1nc(Nc2cccc(OC(F)(F)F)c2)ncc1Br [Compound B40] | > 1000 nM |
| COC(=O)c1ccccc1Oc1nc(Nc2ccc(C(N)=O)cc2)ncc1Br [Compound B41] | > 1000 nM |
| COC(=O)c1ccccc1Oc1nc(Nc2ccc(C(F)(F)F)cc2)ncc1Br [Compound B42] | > 1000 nM |
| COC(=O)c1ccc(Nc2ncc(Br)c(Oc3ccccc3C(=O)OC)n2)cc1 [Compound B43] | > 1000 nM |
| COc1cc(Nc2ncc(Br)c(Oc3ccccc3C(=O)N3CCN(C)CC3)n2)cc(OC)c1OC [Compound B44] | > 1000 nM |
| COc1cc(Nc2ncc(Br)c(Oc3ccccc3C(=O)N(C)CC#N)n2)cc(OC)c1OC [Compound B45] | 100 to 1000 nM |

From patent publication US20230135635A1, “INHIBITORS OF ULK1/2 AND METHODS OF USING SAME” (SALK INSTITUTE FOR BIOLOGICAL STUDIES, priority 2020, published 2023)
